Data reported in ChEMBL document CHEMBL1201862, “PubChem BioAssay data set” (2004).
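Step 1: Grow cells in 96-well plates. Step 2: Expose to compound for 48 hours at 5 concentrations. Step 3: Interpolate endpoints linearly; if unreached, use highest concentration. At the GI50, growth is halved.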 Activity calls are given as the source filed them. Cut-off read from the data, not from the text of the source: active = GI50 up to about 1.1 µM and inactive = higher.

How the values were obtained:
Assay in all cases: DTP human tumour cell line panel, 48 h
MDA-N = test system: MDA-N
HT-29 = test system: HT-29
HOP-92 = test system: HOP-92
NCI-H522 = test system: NCI-H522
OVCAR-5 = test system: OVCAR-5
NCI-H226 = test system: NCI-H226
M14 = test system: M14
HOP-62 = test system: HOP-62
HCT-15 = test system: HCT-15
MOLT-4 = test system: MOLT-4
SF-268 = test system: SF-268
T47D = test system: T47D
IGROV-1 = test system: IGROV-1
SK-MEL-5 = test system: SK-MEL-5
SF-539 = test system: SF-539
TK-10 = test system: TK-10
UACC-257 = test system: UACC-257
CCRF-CEM = test system: CCRF-CEM
HL-60 = test system: HL-60
EKVX = test system: EKVX
ACHN = test system: ACHN
CAKI-1 = test system: CAKI-1
U-251 = test system: U-251
LOX IMVI = test system: LOX IMVI
OVCAR-8 = test system: OVCAR-8
MCF7 = test system: MCF7
BT-549 = test system: BT-549
SW-620 = test system: SW-620
OVCAR-4 = test system: OVCAR-4
A498 = test system: A498
DU-145 = test system: DU-145
A549 = test system: A549
RPMI-8226 = test system: RPMI-8226
SN12C = test system: SN12C
SK-OV-3 = test system: SK-OV-3
OVCAR-3 = test system: OVCAR-3
786-0 = test system: 786-0
KM12 = test system: KM12
SNB-75 = test system: SNB-75
K562 = test system: K562
NCI/ADR-RES = test system: NCI/ADR-RES
SR = test system: SR
MDA-MB-231 = test system: MDA-MB-231
SK-MEL-28 = test system: SK-MEL-28
Malme-3M = test system: Malme-3M
Hs-578T = test system: Hs-578T
NCI-H23 = test system: NCI-H23
MDA-MB-435 = test system: MDA-MB-435
UO-31 = test system: UO-31
UACC-62 = test system: UACC-62
NCI-H460 = test system: NCI-H460
HCT-116 = test system: HCT-116
PC-3 = test system: PC-3
SF-295 = test system: SF-295
COLO 205 = test system: COLO 205
SNB-19 = test system: SNB-19
SK-MEL-2 = test system: SK-MEL-2
RXF 393 = test system: RXF 393
HCC 2998 = test system: HCC 2998

Nc1nc(Cl)cc(NCC2(CO)CCCCC2)n1
GI50 (MDA-N): > 100 µM (inactive) | GI50 (HT-29): > 100 µM (inactive) | GI50 (HOP-92): 56.9 µM (inactive) | GI50 (NCI-H522): > 100 µM (inactive) | GI50 (OVCAR-5): > 100 µM (inactive) | GI50 (NCI-H226): > 100 µM (inactive) | GI50 (M14): > 100 µM (inactive) | GI50 (HOP-62): > 100 µM (inactive) | GI50 (HCT-15): > 100 µM | GI50 (MOLT-4): 59.4 µM (inactive) | GI50 (SF-268): > 100 µM (inactive) | GI50 (T47D): 38.5 µM (inactive) | GI50 (IGROV-1): > 100 µM (inactive) | GI50 (SK-MEL-5): 44 µM (inactive) | GI50 (SF-539): > 100 µM (inactive) | GI50 (TK-10): > 100 µM (inactive) | GI50 (UACC-257): 64.7 µM (inactive) | GI50 (CCRF-CEM): > 100 µM (inactive) | GI50 (HL-60): > 100 µM (inactive) | GI50 (EKVX): 67 µM (inactive) | GI50 (ACHN): > 100 µM (inactive) | GI50 (CAKI-1): > 100 µM (inactive) | GI50 (U-251): > 100 µM (inactive) | GI50 (LOX IMVI): 49.3 µM (inactive) | GI50 (OVCAR-8): > 100 µM (inactive) | GI50 (MCF7): 97.9 µM (inactive) | GI50 (BT-549): > 100 µM (inactive) | GI50 (SW-620): > 100 µM (inactive) | GI50 (OVCAR-4): 80.7 µM (inactive) | GI50 (A498): 70.8 µM (inactive) | GI50 (DU-145): > 100 µM (inactive) | GI50 (A549): > 100 µM (inactive) | GI50 (RPMI-8226): 97.5 µM (inactive) | GI50 (SN12C): 81.1 µM (inactive) | GI50 (SK-OV-3): > 100 µM (inactive) | GI50 (OVCAR-3): > 100 µM (inactive) | GI50 (786-0): > 100 µM (inactive) | GI50 (KM12): > 100 µM (inactive) | GI50 (SNB-75): > 100 µM (inactive) | GI50 (K562): 94 µM (inactive) | GI50 (NCI/ADR-RES): 39.7 µM (inactive) | GI50 (SR): 68.2 µM (inactive) | GI50 (MDA-MB-231): > 100 µM (inactive) | GI50 (SK-MEL-28): > 100 µM (inactive) | GI50 (Malme-3M): > 100 µM (inactive) | GI50 (Hs-578T): > 100 µM (inactive) | GI50 (NCI-H23): 48.9 µM (inactive) | GI50 (MDA-MB-435): > 100 µM (inactive) | GI50 (UO-31): > 100 µM (inactive) | GI50 (UACC-62): > 100 µM (inactive) | GI50 (NCI-H460): > 100 µM (inactive) | GI50 (HCT-116): > 100 µM (inactive) | GI50 (PC-3): 83.4 µM (inactive) | GI50 (SF-295): > 100 µM (inactive) | GI50 (COLO 205): > 100 µM (inactive) | GI50 (SNB-19): > 100 µM (inactive) | GI50 (SK-MEL-2): > 100 µM (inactive) | GI50 (RXF 393): > 100 µM (inactive)

CCN(CC)C(=O)N[C@@H](CC(C)C)C(=O)NC
GI50 (MDA-N): > 100 µM (inactive) | GI50 (HT-29): > 100 µM (inactive) | GI50 (NCI-H522): > 100 µM (inactive) | GI50 (OVCAR-5): > 100 µM (inactive) | GI50 (M14): > 100 µM (inactive) | GI50 (HOP-62): > 100 µM (inactive) | GI50 (HCT-15): > 100 µM | GI50 (MOLT-4): > 100 µM (inactive) | GI50 (SF-268): > 100 µM (inactive) | GI50 (T47D): > 100 µM (inactive) | GI50 (IGROV-1): > 100 µM (inactive) | GI50 (SK-MEL-5): > 100 µM (inactive) | GI50 (HCC 2998): > 100 µM (inactive) | GI50 (CCRF-CEM): > 100 µM (inactive) | GI50 (HL-60): 43.3 µM (inactive) | GI50 (EKVX): > 100 µM (inactive) | GI50 (ACHN): > 100 µM (inactive) | GI50 (CAKI-1): > 100 µM (inactive) | GI50 (U-251): > 100 µM (inactive) | GI50 (LOX IMVI): > 100 µM (inactive) | GI50 (OVCAR-8): > 100 µM (inactive) | GI50 (MCF7): 49.4 µM (inactive) | GI50 (BT-549): > 100 µM (inactive) | GI50 (SW-620): > 100 µM (inactive) | GI50 (OVCAR-4): > 100 µM (inactive) | GI50 (A498): > 100 µM (inactive) | GI50 (DU-145): > 100 µM (inactive) | GI50 (A549): > 100 µM (inactive) | GI50 (RPMI-8226): > 100 µM (inactive) | GI50 (SN12C): > 100 µM (inactive) | GI50 (SK-OV-3): > 100 µM (inactive) | GI50 (OVCAR-3): > 100 µM (inactive) | GI50 (786-0): > 100 µM (inactive) | GI50 (KM12): > 100 µM (inactive) | GI50 (SNB-75): > 100 µM (inactive) | GI50 (K562): > 100 µM (inactive) | GI50 (NCI/ADR-RES): > 100 µM (inactive) | GI50 (SR): > 100 µM (inactive) | GI50 (MDA-MB-231): > 100 µM (inactive) | GI50 (SK-MEL-28): > 100 µM (inactive) | GI50 (Malme-3M): > 100 µM (inactive) | GI50 (Hs-578T): > 100 µM (inactive) | GI50 (NCI-H23): > 100 µM (inactive) | GI50 (MDA-MB-435): > 100 µM (inactive) | GI50 (UO-31): > 100 µM (inactive) | GI50 (UACC-62): > 100 µM (inactive) | GI50 (NCI-H460): > 100 µM (inactive) | GI50 (HCT-116): > 100 µM (inactive) | GI50 (PC-3): 73.6 µM (inactive) | GI50 (SF-295): > 100 µM (inactive) | GI50 (COLO 205): > 100 µM (inactive) | GI50 (SNB-19): > 100 µM (inactive) | GI50 (SK-MEL-2): > 100 µM (inactive) | GI50 (RXF 393): > 100 µM (inactive)
